Laboratory results from paper PMC5130005, “Indolin-2-one compounds targeting thioredoxin reductase as potential anticancer drug leads” (Oncotarget, 2016).

How the values were obtained:
[1] = system: HCT 116 cells; experiment: MTT cell viability assay, HCT 116 cells; type: cell-based; settings: Homo sapiens, 72 h, mean ± SD of 3 experiments; for GI50: read-out: GI50 (50% growth inhibition concentration), HCT 116 cells
Description: (§1) HCT 116 and MCF-7 cells were seeded in 96-well plates at a density of 1 × 10^4 cells/well and allowed to grow for 20-24 h before addition of test compounds. DMSO stocks of indolin-2-one compounds were serially diluted in medium each time an assay was performed. Cell viability was determined at the time of compound addition (time 0) and after 72 h of compound treatment by reduction of 3-(4,5-dimethylthiazol-2-yl)-2,5-diphenyltetrazolium bromide (MTT) by dehydrogenases in viable cells. MTT was added into each well (final concentration 400 μg/ml) and the plates were incubated for 4 h at 37°C. The supernatants were aspirated and upon solubilization of the formed formazan crystals in DMSO:glycine buffer pH 10.5 (ratio 4:1), absorbance at 550 nm was measured. 50% growth inhibition concentrations (GI50) and 50% lethal concentrations (LC50) values were calculated.

[2] = system: MCF-7 cells; experiment: MTT cell viability assay, MCF-7 cells; type: cell-based; settings: Homo sapiens, MCF7, 72 h, mean ± SD of 3 experiments; for GI50: read-out: GI50 (50% growth inhibition concentration), MCF-7 cells; for CC50: read-out: LC50 (50% lethal concentration), MCF-7 cells
Description: as §1

[3] = target: T1, recombinant rat TrxR (Rattus norvegicus, UniProt O89049); experiment: in vitro TrxR DTNB reduction assay; type: biochemical; settings: 30 min incubation, 100 nM recombinant rat TrxR, 200 μM NADPH, read-out: TrxR inhibition IC50
T1 construct: made in house
T1 sequence (O89049 1-499): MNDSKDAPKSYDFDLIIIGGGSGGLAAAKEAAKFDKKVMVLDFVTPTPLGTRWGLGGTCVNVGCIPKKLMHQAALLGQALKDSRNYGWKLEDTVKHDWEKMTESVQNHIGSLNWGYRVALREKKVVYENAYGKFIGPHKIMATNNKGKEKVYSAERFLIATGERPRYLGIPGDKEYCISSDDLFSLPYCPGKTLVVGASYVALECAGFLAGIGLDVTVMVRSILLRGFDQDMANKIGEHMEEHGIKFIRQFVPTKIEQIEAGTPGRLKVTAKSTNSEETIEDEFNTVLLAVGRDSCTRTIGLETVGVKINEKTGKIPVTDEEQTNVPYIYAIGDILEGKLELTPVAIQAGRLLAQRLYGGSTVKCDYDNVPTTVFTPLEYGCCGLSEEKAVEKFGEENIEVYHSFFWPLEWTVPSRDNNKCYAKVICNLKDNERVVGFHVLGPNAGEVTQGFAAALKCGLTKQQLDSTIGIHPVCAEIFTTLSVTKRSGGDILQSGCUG
Description: In a volume of 100 μl of 50 mM Tris-HCl pH 7.5, 2 mM EDTA buffer (TE buffer), compounds of concentrations 1-100 μM were incubated with 100 nM recombinant rat TrxR and 200 μM NADPH at room temperature in 96-well plates for 30 and 60 min. The incubation was terminated by addition of 100 μl per well of 10 mM DTNB, 200 μM NADPH solution in TE buffer and immediately followed by measurement of linear increase of absorbance at 412 nm for the initial 2 min using the VersaMax microplate reader (Molecular Devices). The results were expressed as % of TrxR activity of drug-treated sample over that of DMSO control. The 50% inhibition concentration (IC50) values were calculated.

[4] = target: T2, bovine GPx (Bos taurus, UniProt P00435); experiment: in vitro bovine GPx activity assay; type: biochemical; settings: 60 min incubation, 1-100 μM, 100 nM bovine GPx
T2 construct: purchased Sigma
T2 sequence (P00435 1-205): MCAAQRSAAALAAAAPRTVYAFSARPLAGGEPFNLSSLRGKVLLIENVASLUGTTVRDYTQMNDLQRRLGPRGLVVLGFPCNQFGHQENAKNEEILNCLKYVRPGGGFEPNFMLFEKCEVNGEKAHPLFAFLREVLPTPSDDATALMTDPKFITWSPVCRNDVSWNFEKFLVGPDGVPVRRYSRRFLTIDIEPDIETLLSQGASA
Description: For determination of in vitro bovine GPx activity, compounds of concentrations 1-100 μM were incubated with 100 nM bovine GPx, 20 nM yeast GR, 1 mM GSH and 200 μM NADPH in a volume of 100 μl phosphate buffer (0.1 M sodium phosphate, 2 mM EDTA pH 7.5) for 1 h at room temperature. H2O2 solution in phosphate buffer was added to initiate the reaction (final concentration 1.5 mM). NADPH consumption was monitored at 340 nm using the VersaMax microplate reader. The cellular GPx activity was determined similarly except lysates of HCT 116 and MCF-7 cells (25 μg protein) were used instead of bovine GPx. The results were calculated based on decrease in absorbance in the initial 3 min and presented as % of GPx activity of drug-treated sample over that of DMSO-treated sample.

With `CCCCN1C(=O)/C(=C/C(C)=O)c2ccccc21` [Compound 4] the LC50 (50% lethal concentration) [1] was 9.7 ± 0.2 µM, the GI50 [1] was 4.5 ± 0.9 µM and the GI50 [2] was 6.4 ± 1.5 µM. For the same compound, the CC50 [2] was 22.4 ± 3.6 µM, the IC50 [3] was 8.6 ± 0.9 µM and the “bovine GPx activity” value [4] was “uninhibited”.

In the case of `CC(=O)C=C1C(=O)N(C)c2ccccc21` [Compound 1, 1-methyl-3(2-oxopropylidene)indolin-2-one], the GI50 [1] is reported as 11.8 ± 3.3 µM, the GI50 [2] is reported as 15.1 ± 4.1 µM and the CC50 [2] is reported as 27.6 ± 0.4 µM. For the same compound, the IC50 [3] was 22.1 ± 1.8 µM and the “bovine GPx activity” value [4] was “uninhibited”.

Work on `CC(=O)/C=C1/C(=O)N(Cc2ccccc2)c2ccccc21` [Compound 5] yielded an LC50 (50% lethal concentration) [1] of 9.4 ± 0.3 µM, a GI50 [1] of 3.2 ± 0.1 µM and a GI50 [2] of 4.5 ± 0.6 µM. The CC50 [2] was 9.6 ± 0.2 µM, the IC50 [3] was 6.2 ± 1.7 µM and the “bovine GPx activity” value [4] was “uninhibited”.

For `CN1C(=O)/C(=C/C(=O)c2ccccc2)c2ccccc21` [Compound 6], the LC50 (50% lethal concentration) [1] was 27.2 ± 2.4 µM, the GI50 [1] was 8.5 ± 0.8 µM and the GI50 [2] was 14 ± 3.7 µM. For the same compound, the CC50 [2] was 27.1 ± 0.5 µM, the IC50 [3] was 14.7 ± 3.2 µM and the “bovine GPx activity” value [4] was “uninhibited”.
